# From ChEMBL document CHEMBL1201862, “PubChem BioAssay data set” (2004)
# Calls of active or inactive are those of the source.
# What was measured:
# [1] = HEp-2 cell cytotoxicity, dose response, cytotoxicity control for RSV inhibitor project, HTS (AID 2410); format: functional; conditions: human respiratory syncytial virus
# Vero [2] = assay: cells; format: functional, cell-based; conditions: Chlorocebus sabaeus
# Vero [3] = assay: cells; format: functional; conditions: Chlorocebus sabaeus
# Estrogen receptor beta = Estrogen receptor beta (Homo sapiens, UniProt Q92731); assay: ERβ–SRC-3 coactivator interaction inhibitors, confirmation, orthogonal assay, biochemical, ELISA, streptavidin-HRP readout (AID 1060)
# [4] = test system: Streptococcus sp. 'group A'; assay: growth inhibition of control SK(-) GAS strain, dose response, counter-screen for streptokinase expression inhibitor project, luminescence, kanamycin, BacTiterGlo, confirmation (AID 1900); format: functional, organism-based
# [5] = Luminescence Cell-Based Dose Retest to Confirm Inhibitors of Cancer Stem Cells. [Related pubchem assays (depositor defined):AID2717, AID2721]; format: functional; conditions: Homo sapiens
# Streptococcus = assay: Group A Streptococcus viability loss, dose response, counter-screen for streptokinase expression inhibitor project, luminescence, BacTiterGlo (AID 1915); format: functional, organism-based;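 further: potency for reduction of bacterial viability or growth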
# Streptokinase A = target: T1, Streptokinase A (Streptococcus pyogenes serotype M1, UniProt P10520); assay: S. pyogenes streptokinase expression inhibitors, potency, dose response, plasminogen activation absorbance, OD405 (AID 1914); format: functional, Streptococcus pyogenes M1 GAS;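 further: secreted streptokinase activity via plasminogen activation per viability signal from cell pellet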
# T1 sequence (P10520 whole entry): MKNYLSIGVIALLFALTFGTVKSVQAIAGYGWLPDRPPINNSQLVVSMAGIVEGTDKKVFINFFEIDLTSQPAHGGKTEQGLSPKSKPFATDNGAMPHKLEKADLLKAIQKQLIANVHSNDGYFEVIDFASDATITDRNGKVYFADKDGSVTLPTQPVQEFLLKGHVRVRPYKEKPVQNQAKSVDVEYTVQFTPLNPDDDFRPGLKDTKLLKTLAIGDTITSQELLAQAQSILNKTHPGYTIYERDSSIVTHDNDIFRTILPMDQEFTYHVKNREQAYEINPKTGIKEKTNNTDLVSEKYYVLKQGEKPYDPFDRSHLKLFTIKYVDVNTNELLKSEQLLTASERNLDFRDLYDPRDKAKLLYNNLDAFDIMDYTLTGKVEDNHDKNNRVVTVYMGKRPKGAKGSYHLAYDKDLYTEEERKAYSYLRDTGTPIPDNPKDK
# [6] = insulin promoter down-regulators in MIN6 cells, imaging, high-content screening, mouse beta cells (AID 1628); format: functional
# [7] = cytotoxicity in MIN6 insulinoma cells, dose response, cytotoxicity control, cell-based, mouse insulinoma (AID 2122); format: functional;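 further: confirmatory high-throughput counterscreen run to flag cytotoxic compounds; mouse MIN-6 beta cells carrying an insulin promoter eGFP reporter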
# Paired box protein Pax-8 = Paired box protein Pax-8 (Homo sapiens, UniProt Q06710); assay: inhibitors of PAX8-driven TPO luciferase reporter, dose response, RMG-I cells, cherry-pick (AID 687027); format: functional, cell-based;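 further: luciferase reporter driven by Pax8 target thyroperoxidase promoter measured by SteadyGlo luminescence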
# [8] = target: T2, Short transient receptor potential channel 4 (Mus musculus, UniProt Q9QUQ5); assay: mouse TRPC4 channel activators, dose response, cell-based, HEK293 TRPC4/mu-opioid, Fluo-4 calcium (AID 434937); format: functional
# T2 sequence (Q9QUQ5 whole entry): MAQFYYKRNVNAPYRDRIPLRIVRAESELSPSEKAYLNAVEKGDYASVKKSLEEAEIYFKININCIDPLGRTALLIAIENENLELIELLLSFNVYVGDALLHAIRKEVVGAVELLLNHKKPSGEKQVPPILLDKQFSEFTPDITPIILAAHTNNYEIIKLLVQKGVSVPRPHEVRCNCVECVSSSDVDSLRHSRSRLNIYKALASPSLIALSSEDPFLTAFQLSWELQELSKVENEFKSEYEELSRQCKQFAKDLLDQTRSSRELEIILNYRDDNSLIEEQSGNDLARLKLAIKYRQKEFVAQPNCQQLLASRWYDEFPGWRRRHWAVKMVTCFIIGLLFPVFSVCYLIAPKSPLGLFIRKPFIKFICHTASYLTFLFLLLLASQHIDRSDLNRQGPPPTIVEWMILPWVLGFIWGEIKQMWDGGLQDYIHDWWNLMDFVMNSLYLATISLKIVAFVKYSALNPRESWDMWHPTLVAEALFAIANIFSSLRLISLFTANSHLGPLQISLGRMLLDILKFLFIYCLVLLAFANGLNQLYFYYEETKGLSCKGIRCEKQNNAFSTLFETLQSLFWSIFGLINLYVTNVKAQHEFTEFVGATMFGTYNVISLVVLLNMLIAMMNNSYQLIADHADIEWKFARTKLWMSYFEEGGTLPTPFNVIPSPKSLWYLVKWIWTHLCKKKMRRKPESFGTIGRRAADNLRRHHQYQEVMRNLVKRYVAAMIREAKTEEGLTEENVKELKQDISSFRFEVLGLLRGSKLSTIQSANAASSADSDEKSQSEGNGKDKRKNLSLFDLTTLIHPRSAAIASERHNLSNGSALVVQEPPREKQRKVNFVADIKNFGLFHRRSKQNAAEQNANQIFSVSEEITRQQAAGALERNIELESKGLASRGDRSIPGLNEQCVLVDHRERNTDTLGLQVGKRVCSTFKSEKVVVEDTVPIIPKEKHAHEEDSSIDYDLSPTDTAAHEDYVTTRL
# Escherichia coli = assay: microbe, parasite or virus in culture
# [9] = target: G-protein coupled receptor 55 (Homo sapiens, UniProt Q9Y2T6); assay: GPR55 antagonists blocking LPI-driven arrestin recruitment, primary screen, imaging, U2OS, beta-arrestin-GFP, LPI agonist (AID 2013); format: functional;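 further: antagonist potency measured as reduced agonist-driven arrestin aggregation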
# Estrogen receptor = target: T3, Estrogen receptor (Homo sapiens, UniProt P03372);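 further: potency for inhibiting coactivator peptide recruitment to the receptor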
# T3 sequence (P03372 whole entry): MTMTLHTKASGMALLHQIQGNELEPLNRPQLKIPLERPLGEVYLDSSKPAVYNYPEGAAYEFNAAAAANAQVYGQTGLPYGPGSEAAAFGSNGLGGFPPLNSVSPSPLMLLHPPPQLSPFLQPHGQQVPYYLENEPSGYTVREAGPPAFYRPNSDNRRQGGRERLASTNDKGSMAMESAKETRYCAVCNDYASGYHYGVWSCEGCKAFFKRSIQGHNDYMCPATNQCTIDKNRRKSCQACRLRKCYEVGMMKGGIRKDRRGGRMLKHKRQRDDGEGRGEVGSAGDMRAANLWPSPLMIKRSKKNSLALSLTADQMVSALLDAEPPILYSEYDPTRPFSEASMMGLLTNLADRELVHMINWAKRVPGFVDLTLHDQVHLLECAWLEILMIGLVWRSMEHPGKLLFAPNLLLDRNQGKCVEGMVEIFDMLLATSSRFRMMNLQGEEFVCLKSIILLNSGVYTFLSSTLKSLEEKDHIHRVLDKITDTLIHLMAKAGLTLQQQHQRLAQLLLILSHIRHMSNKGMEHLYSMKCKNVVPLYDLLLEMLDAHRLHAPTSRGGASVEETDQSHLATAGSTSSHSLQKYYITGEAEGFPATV
# Bcl-2-related protein A1 [10] = target: T4, Bcl-2-related protein A1 (Mus musculus, UniProt Q07440); assay: Bfl-1 binding inhibitors, SAR follow-up, biochemical, fluorescence polarization (AID 1070)
# T4 sequence (Q07440 whole entry): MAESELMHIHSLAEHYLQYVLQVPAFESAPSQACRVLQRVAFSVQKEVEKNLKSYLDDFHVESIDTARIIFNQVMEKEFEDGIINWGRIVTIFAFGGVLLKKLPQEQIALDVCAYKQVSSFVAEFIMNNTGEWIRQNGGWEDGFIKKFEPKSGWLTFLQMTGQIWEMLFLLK
# Bcl-2-related protein A1 [11] = target: T4, Bcl-2-related protein A1; assay: Bfl-1 inhibitors blocking BH3 peptide binding, confirmation, biochemical, TR-FRET, mouse Bfl-1 (AID 621);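 further: TR-FRET binding of GST-Bfl-1 to FITC-labelled Bid peptide via terbium antibody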
# [12] = target: Glyceraldehyde-3-phosphate dehydrogenase (Homo sapiens, UniProt P04406)
# [13] = target: T5, Carboxy-terminal domain RNA polymerase II polypeptide A small phosphatase 1 (Homo sapiens, UniProt Q9GZU7); assay: inhibitors of CTDSP1, concentration-response testing, biochemical assay, absorbance-based, actives from ultra-high-throughput screening (AID 540297); format: functional
# T5 sequence (Q9GZU7 whole entry): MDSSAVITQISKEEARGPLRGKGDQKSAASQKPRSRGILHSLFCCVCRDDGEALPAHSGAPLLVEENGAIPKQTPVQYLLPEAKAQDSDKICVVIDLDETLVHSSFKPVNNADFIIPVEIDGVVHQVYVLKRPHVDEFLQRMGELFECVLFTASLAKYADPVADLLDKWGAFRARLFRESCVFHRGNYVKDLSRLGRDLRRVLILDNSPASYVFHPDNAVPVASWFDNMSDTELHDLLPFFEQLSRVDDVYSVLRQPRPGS
# HEK293 [14] = assay: cells; format: functional, cell-based; conditions: Homo sapiens
# HEK293 [15] = assay: NOD1 signaling inhibitors, primary screen, cell-based, luminescence, uHTS (AID 1578); format: functional; conditions: Homo sapiens
# HEK293 [16] = assay: NOD2 signaling inhibitors in MDP-stimulated cells, cell-based, uHTS, luminescence (AID 2001); format: functional; conditions: Homo sapiens
# HEK293 [17] = assay: cells; format: functional, cell-based; conditions: Homo sapiens; remark: listed apart in the source
# NS3 = NS3 (Hepatitis C virus, UniProt A3EZJ3); assay: PubChem AID 2173; parameters: species or system Hepacivirus hominis
# Sequence of NS3 (A3EZJ3 whole entry): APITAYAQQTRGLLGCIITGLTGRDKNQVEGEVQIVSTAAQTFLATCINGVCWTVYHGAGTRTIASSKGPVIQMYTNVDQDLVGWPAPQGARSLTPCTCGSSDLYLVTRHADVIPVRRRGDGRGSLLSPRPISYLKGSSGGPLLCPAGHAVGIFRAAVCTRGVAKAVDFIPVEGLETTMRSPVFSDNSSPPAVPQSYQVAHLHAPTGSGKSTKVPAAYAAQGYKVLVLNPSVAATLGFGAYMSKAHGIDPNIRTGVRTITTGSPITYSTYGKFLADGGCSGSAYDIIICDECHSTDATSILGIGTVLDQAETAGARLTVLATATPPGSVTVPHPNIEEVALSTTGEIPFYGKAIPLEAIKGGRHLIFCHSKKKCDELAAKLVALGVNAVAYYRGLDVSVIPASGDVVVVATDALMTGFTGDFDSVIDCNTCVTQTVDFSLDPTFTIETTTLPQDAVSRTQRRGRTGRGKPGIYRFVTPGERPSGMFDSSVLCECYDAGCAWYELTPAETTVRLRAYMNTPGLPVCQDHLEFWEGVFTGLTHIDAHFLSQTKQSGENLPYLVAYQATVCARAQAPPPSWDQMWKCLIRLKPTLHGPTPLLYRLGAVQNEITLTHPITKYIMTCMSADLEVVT
# Sequence of Glyceraldehyde-3-phosphate dehydrogenase (P04406 whole entry, the tested form may be a part): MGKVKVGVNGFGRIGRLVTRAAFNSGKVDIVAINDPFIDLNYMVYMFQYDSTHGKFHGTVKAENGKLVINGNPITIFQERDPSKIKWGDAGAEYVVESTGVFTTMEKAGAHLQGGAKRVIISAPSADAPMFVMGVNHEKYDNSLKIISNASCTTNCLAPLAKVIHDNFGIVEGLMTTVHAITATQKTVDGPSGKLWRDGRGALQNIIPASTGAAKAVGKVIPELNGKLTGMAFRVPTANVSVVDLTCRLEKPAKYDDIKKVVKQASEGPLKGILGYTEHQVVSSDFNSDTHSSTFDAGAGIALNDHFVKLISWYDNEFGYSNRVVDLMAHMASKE
# Sequence of G-protein coupled receptor 55 (Q9Y2T6 whole entry): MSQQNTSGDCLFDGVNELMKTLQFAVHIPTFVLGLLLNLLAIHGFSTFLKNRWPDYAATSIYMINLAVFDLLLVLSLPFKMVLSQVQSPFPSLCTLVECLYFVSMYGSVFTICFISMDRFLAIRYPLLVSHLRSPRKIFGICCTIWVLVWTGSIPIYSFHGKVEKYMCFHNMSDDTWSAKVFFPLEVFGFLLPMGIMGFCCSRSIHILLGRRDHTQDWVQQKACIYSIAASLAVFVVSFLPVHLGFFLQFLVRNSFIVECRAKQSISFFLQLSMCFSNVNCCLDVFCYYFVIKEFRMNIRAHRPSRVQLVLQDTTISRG
# Sequence of Estrogen receptor beta (Q92731 whole entry): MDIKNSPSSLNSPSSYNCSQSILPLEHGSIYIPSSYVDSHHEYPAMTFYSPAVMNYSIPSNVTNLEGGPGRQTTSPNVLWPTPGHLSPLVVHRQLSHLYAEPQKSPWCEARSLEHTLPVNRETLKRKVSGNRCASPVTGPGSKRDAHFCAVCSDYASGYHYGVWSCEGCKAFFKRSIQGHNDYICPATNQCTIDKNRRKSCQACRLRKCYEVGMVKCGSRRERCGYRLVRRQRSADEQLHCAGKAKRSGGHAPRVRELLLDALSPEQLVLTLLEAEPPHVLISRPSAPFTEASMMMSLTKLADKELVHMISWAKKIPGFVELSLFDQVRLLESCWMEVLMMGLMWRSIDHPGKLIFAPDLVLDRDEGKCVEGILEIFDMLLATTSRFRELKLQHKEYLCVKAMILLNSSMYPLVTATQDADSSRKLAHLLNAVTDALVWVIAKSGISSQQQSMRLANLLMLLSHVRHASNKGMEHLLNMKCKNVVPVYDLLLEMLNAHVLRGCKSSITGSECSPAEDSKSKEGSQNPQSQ
# Sequence of Paired box protein Pax-8 (Q06710 whole entry): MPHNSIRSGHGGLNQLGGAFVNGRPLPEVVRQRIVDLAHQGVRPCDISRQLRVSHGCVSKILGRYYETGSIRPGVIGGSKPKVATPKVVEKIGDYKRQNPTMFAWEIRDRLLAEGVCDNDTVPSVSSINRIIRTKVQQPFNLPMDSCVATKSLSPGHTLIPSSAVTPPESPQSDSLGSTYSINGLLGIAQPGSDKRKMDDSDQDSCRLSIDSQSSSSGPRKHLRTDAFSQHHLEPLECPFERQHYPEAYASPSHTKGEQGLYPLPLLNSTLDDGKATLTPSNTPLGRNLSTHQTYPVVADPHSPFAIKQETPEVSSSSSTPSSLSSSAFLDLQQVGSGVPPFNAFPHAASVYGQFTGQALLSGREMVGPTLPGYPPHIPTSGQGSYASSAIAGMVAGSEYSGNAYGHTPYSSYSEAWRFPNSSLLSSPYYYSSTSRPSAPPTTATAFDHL
compound,measurement,setting,value
O=C(O)c1ccccc1Nc1ccc(OC(F)F)cc1,IC50,cells,40.9 µM (active)
same,CC50,[1],23.8 µM (active)
Cc1cc2cc(CN(CCN(C)C)C(S)=NCc3ccco3)c(O)nc2cc1C,IC50,Vero [2],10.4 µM (active)
same,CC50,Vero [3],> 25 µM (active)
Cc1sc2nc(C3CC3)nc(SCC(=O)N3c4ccccc4CC3C)c2c1C (stereo not drawn),IC50,cells,3.98 µM (active)
same,CC50,[1],7.61 µM (active)
N#Cc1c(NC(=O)CN2CCN(c3ccccc3)CC2)sc2c1CCC2,IC50,Estrogen receptor beta,44.5 µM (not active)
Brc1ccc2[nH]c3c(N4CCc5ccccc5C4)ncnc3c2c1,EC50,[4],5.55 µM (active)
same,AC50,[5],20.4 µM (active)
same,EC50,Streptococcus,> 150 µM (not active)
same,EC50,Streptokinase A,10.9 µM (active)
same,IC50,[6],1.43 µM (active)
same,IC50,[7],1.28 µM (active)
CC12CCC3C(CCC4(O)CC(O)CCC34C=NO)C1(O)CCC2C1=COC(=O)C1 (stereo not drawn),AC50,Paired box protein Pax-8,1.12 µM (active)
same,IC50,Vero [2],> 25 µM (active)
same,CC50,Vero [3],0.62 µM (active)
Cc1cc(OCCCn2ccnc2)ccc1[N+](=O)[O-],EC50,[8],4.73 µM (active)
Cc1ccc(OCCOCCNC(C)(C)C)c([N+](=O)[O-])c1,AC50,Escherichia coli,46.9 µM (active)
CCCCCSc1nnc2c(n1)OC(c1cccn1C)N(C(C)=O)c1ccccc1-2 (stereo not drawn),EC50,[8],10.6 µM (active)
CC(C)N(C(=O)CSc1nc2ccccc2n1-c1ccccc1)C(C)C,AC50,[5],5.12 µM (active)
same,IC50,[9],3.82 µM (active)
C=CCn1c(=O)[nH]c2cc(C(=O)N3CCN(c4ccc(C(C)=O)cc4)CC3)ccc2c1=O,IC50,Estrogen receptor,> 50 µM (not active)
O=C(Nc1ccc(F)cc1F)c1noc2c1CCC2,IC50,Estrogen receptor beta,> 50 µM (not active)
CC1CCCN(C(=O)c2nn(C)c3c2CSc2ccccc2-3)C1 (stereo not drawn),AC50,Escherichia coli,48.3 µM (active)
C[C@H]1CC[C@H]2C(=O)N3[C@H](c4ccccc4Br)[C@@H](C)CC[C@H]3C(=O)N2[C@@H]1c1ccccc1Br,IC50,[6],2.32 µM (active)
same,IC50,[7],4.2 µM (active)
COC(=O)c1cc(NC2c3ccccc3C(=O)N2c2ccc(Cl)cn2)cc(C(=O)OC)c1 (stereo not drawn),IC50,Estrogen receptor,> 50 µM (not active)
CCCOc1ccccc1/C=C1\SC(N2CCCCC2)=NC1=O,IC50,Vero [2],5.33 µM (active)
same,CC50,Vero [3],> 25 µM (active)
same,CC50,[1],44.7 µM (active)
O=C(Nc1ccccc1Cl)C(Cl)C(=O)c1ccccc1 (stereo not drawn),IC50,[9],11.2 µM (inactive)
C=CCN1C(=O)c2ccc(C(=O)N3CCC(C(N)=O)CC3)cc2C1=O,AC50,Escherichia coli,57.7 µM (active)
O=C1C(Cl)=C(Cl)C(=O)N1c1cccc([N+](=O)[O-])c1,IC50,Bcl-2-related protein A1 [10],11.9 µM (active)
same,IC50,Bcl-2-related protein A1 [11],16.4 µM (active)
same,IC50,[12],> 100 µM (not active)
O=C(CSc1nc(-c2ccc(F)cc2)cs1)NC(=O)NCc1ccco1,IC50,[13],18.8 µM (active)
same,IC50,Estrogen receptor,> 50 µM (not active)
COc1ccc(C(CNC(=O)Cc2ccc(-c3ccccc3)cc2)N(C)C)cc1 (stereo not drawn),EC50,[8],0.267 µM (active)
Cc1noc2ncnc(N3CCN(c4cccc(Cl)c4)CC3)c12,IC50,HEK293 [14],8.79 µM (active)
same,EC50,HEK293 [15],10.4 µM (active)
same,IC50,HEK293 [16],10.3 µM (inactive)
same,IC50,HEK293 [17],> 20 µM (inactive)
CN1CCN(C2=C(Cl)C(=O)N(c3c(Cl)cccc3Cl)C2=O)CC1,IC50,Bcl-2-related protein A1 [10],13.4 µM (active)
same,IC50,Bcl-2-related protein A1 [11],3.72 µM (active)
same,IC50,[12],> 100 µM (not active)
OCCC1CN(Cc2cccn2-c2nccs2)CCN1CCc1ccccc1 (stereo not drawn),IC50,cells,30.3 µM (active)
Cc1cccc(N2C(=O)C(O)=C(C(=O)c3cccs3)C2c2cccc(Oc3ccccc3)c2)n1 (stereo not drawn),IC50,NS3,3.02 µM (active)
COc1ccc(-n2c(SCC(=O)/C(C#N)=C(\C)N)nc3ccccc3c2=O)cc1OC,IC50,cells,2.62 µM (active)
